Where two headings read alike, the source gives them in different places.
How the values were obtained:
[1] = system: SARS-CoV-2-NLuc; assay: microbe, parasite or virus in culture; format: cell-based, SARS Coronavirus 2
[2] = target: recombinant SARS-CoV-2 Main protease (Mpro) (Severe acute respiratory syndrome coronavirus 2 (2019-nCoV) (SARS-CoV-2), UniProt P0DTD1); assay: Cov Mpro Biochemical IC50 Assay; settings: read-out: MPro IC50
[3] = Severe acute respiratory syndrome coronavirus, 48 h, read-out: MPro EC50
[4] = recombinant SARS-CoV-2 Mpro, fluorogenic peptide substrate
[5] = recombinant SARS-CoV-2 Mpro 7.5 nM, fluorogenic peptide substrate 40 μM
[6] = Severe acute respiratory syndrome coronavirus, 48 h; read-out: MPro EC50

SMILES	EC50 [1, 3]	IC50 [2, 4]	IC50 [2, 5]	EC50 ([1]; read-out: MPro EC50)	EC50 [1, 6]
C#Cc1cccc(Cl)c1-c1ccc2c(=O)n(-c3cncc4ccccc34)c(=O)[nH]c2c1 [Example 159, 7-(2-chloro-6-ethynyl-phenyl)-3-(4-isoquinolyl)-1H-quinazoline-2,4-dione]	335 nM	988 nM	–	–	–
COc1cc(-c2cc3c(s2)c(=O)n(-c2cncc4cccc(F)c24)c(=O)n3CCC#N)c(C#N)cc1F [Example 943]	10 nM	–	10.3 nM	–	–
Cc1cc(-c2cc3[nH]c(=O)n(-c4cncc5ccccc45)c(=O)c3s2)c(Cl)cc1F [Example 350]	49.2 nM	17.2 nM	–	–	–
COc1cc2c(=O)n(-c3cncc4ccccc34)c(=O)[nH]c2cc1-c1ccccc1Cl [Example 83]	122 nM	109 nM	–	–	–
N#Cc1ccc(-c2ccc3c(=O)n(-c4cncc5ccccc45)c(=O)[nH]c3c2)cc1 [Example 35]	> 50000 nM	> 100000 nM	–	–	–
COc1cc(-c2cc3[nH]c(=O)n(-c4cncc5ncc(C)n45)c(=O)c3s2)c(Cl)cc1F [Example 1082]	91.1 nM	–	18 nM	–	–
COc1cc(-c2cc3[nH]c(=O)n(-c4cncc5cccc(Cl)c45)c(=O)c3s2)c(Cl)cc1F [Example 1074]	–	–	4.32 nM	5.89 nM	–
CNC(=O)[C@H]1C[C@@H]1c1cncc(-n2c(=O)[nH]c3cc(-c4ccccc4Cl)sc3c2=O)c1 [Example 383]	286 nM	5.23 nM	–	–	–
COc1cc(-c2cc3c(s2)c(=O)n(-c2cncc(F)c2C)c(=O)n3CCC#N)c(Cl)cc1F (single isomer, unassigned) [Example 1026, 3-[6-(2-chloro-4-fluoro-5-methoxy-phenyl)-3-(5-fluoro-4-methyl-3-pyridyl)-2,4-dioxo-thieno[3,2-d]pyrimidin-1-yl]propanenitrile]	–	–	3.08 nM	5.44 nM	–
COc1cc(-c2cc3c(s2)c(=O)n(-c2cncc4nn(C)c(C)c24)c(=O)n3CCC#N)c(Cl)cc1F (single isomer, unassigned) [Example 1041, 3-(6-(2-chloro-4-fluoro-5-methoxyphenyl)-3-(2,3-dimethyl-2H-pyrazolo[3,4-c]pyridin-4-yl)-2,4-dioxo-3,4-dihydrothieno[3,2-d]pyrimidin-1(2H)-yl)propanenitrile]	–	–	2.99 nM	5.72 nM	–
COc1cc(-c2cc3[nH]c(=O)n(-c4cncc5nn(CC(F)(F)F)c(C)c45)c(=O)c3s2)c(Cl)cc1F [Example 740]	103 nM	–	47.9 nM	–	–
N#Cc1ccc(F)c(-c2cc3[nH]c(=O)n(-c4cncc5ccccc45)c(=O)c3s2)c1 [Example 547]	> 1000 nM	–	170 nM	–	–
COc1cc(-c2cc3c(s2)c(=O)n(-c2cncc4c2CCCC4)c(=O)n3CCC#N)c(Cl)cc1F [Example 908]	6.84 nM	–	7.52 nM	–	–
COc1cc(-c2cc3[nH]c(=O)n(-c4cncc5ccn(C)c45)c(=O)c3cc2OC)c(C#N)cc1F [Example 683]	43.7 nM	–	8.88 nM	–	–
N#Cc1cc(F)c(F)cc1-c1ccc2c(=O)n(-c3cncc4ccccc34)c(=O)[nH]c2c1 [Example 323]	557 nM	112 nM	–	–	–
O=c1[nH]c2cc(-c3c(Cl)cccc3OCc3ccnnc3)ccc2c(=O)n1-c1cncc2ccccc12 [Example 93]	95 nM	11.4 nM	–	–	–
CC(C)(C)c1cncc(-n2c(=O)[nH]c3cc(-c4ccccc4Cl)ccc3c2=O)c1 [Example 579]	–	–	> 50000 nM	–	42600 nM
COc1cc(-c2cc3c(s2)c(=O)n(-c2cncc4cnn(C)c24)c(=O)n3CC(F)F)c(Cl)cc1F [Example 1065, 6-(2-chloro-4-fluoro-5-methoxy-phenyl)-1-(2,2-difluoroethyl)-3-(1-methylpyrazolo[4,3-c]pyridin-7-yl)thieno[3,2-d]pyrimidine-2,4-dione]	–	–	7.01 nM	–	13.6 nM
Cc1nc2cncc(-n3c(=O)c4sc(-c5ccc(F)cc5Cl)cc4n(CCC#N)c3=O)c2n1C (single isomer, unassigned) [Example 966, 3-(6-(2-chloro-4-fluorophenyl)-3-(1,2-dimethyl-1H-imidazo[4,5-c]pyridin-7-yl)-2,4-dioxo-3,4-dihydrothieno[3,2-d]pyrimidin-1(2H)-yl)propanenitrile]	–	–	309 nM	> 1000 nM	–
COc1cc(-c2cc3c(s2)c(=O)n(-c2cncc4nc(C)sc24)c(=O)n3CCC#N)c(Cl)cc1F [Example 941]	40.1 nM	–	7.53 nM	–	–
NC(=O)c1cc(-c2cccc(Cl)c2-c2ccc3c(=O)n(-c4cncc5ccccc45)c(=O)[nH]c3c2)ccc1Cl [Example 264]	30.2 nM	11.1 nM	–	–	–

SMILES	EC50 [1, 3]	IC50 [2, 4]	IC50 [2, 5]	EC50 ([1]; read-out: MPro EC50)	EC50 [1, 6]
COc1cc(-c2cc3[nH]c(=O)n(-c4cncc5[nH]cc(C)c45)c(=O)c3s2)c(Cl)cc1F [Example 767]	20.2 nM	–	5.16 nM	–	–
COc1cc(-c2cc3[nH]c(=O)n(-c4cncc5ccn(C)c45)c(=O)c3s2)c(Cl)cc1F (single isomer, unassigned) [Example 957, 6-(2-chloro-4-fluoro-5-methoxyphenyl)-3-(1-methyl-1H-pyrrolo[3,2-c]pyridin-7-yl)thieno[3,2-d]pyrimidine-2,4(1H,3H)-dione]	–	–	2.22 nM	2.65 nM	–
Cc1cc(-c2cccc(Cl)c2-c2cc3[nH]c(=O)n(-c4cncc(C5CC5)c4)c(=O)c3s2)cn2ncnc12 [Example 618]	16 nM	–	6.56 nM	–	–
O=c1[nH]c2cc(-c3ccccc3Cl)sc2c(=O)n1-c1cncc2nccn12 [Example 135]	288 nM	51.5 nM	–	–	–
COc1cc(-c2cc3c(s2)c(=O)n(-c2cncc4cnn(C)c24)c(=O)n3CC2(C#N)CC2)c(Cl)cc1F [Example 643, 1-[[6-(2-chloro-4-fluoro-5-methoxy-phenyl)-3-(1-methylpyrazolo[4,3-c]pyridin-7-yl)-2,4-dioxo-thieno[3,2-d]pyrimidin-1-yl]methyl]cyclopropanecarbonitrile]	–	–	< 4.05 nM	–	1.14 nM
COc1ccc(Cl)c(-c2cc3[nH]c(=O)n(-c4cncc5nc(C67CC(F)(C6)C7)n(C)c45)c(=O)c3s2)c1 [Example 436]	–	–	164 nM	–	489 nM
COc1cc(-c2cc3[nH]c(=O)n(-c4cncc5nn(C)c(C)c45)c(=O)c3s2)c(Cl)cc1F [Example 754]	76.3 nM	–	9.21 nM	–	–
COc1cc(-c2cc3c(s2)c(=O)n(-c2cncc4nnn(C5CC5)c24)c(=O)n3CC2(C#N)CC2)c(Cl)cc1F [Example 692]	2.44 nM	–	4.35 nM	–	–
Cc1ccc(-c2cc3[nH]c(=O)n(-c4cncc5cnn(C)c45)c(=O)c3s2)c(C#N)c1 [Example 841]	523 nM	–	134 nM	–	–
O=c1[nH]c2cc(-c3c(Cl)cccc3-c3cnn4c3OCCC4)sc2c(=O)n1-c1cncc2ccccc12 [Example 528]	7.22 nM	–	7.09 nM	–	–
Cc1ccncc1-n1c(=O)[nH]c2cc(-c3ccccc3Cl)ccc2c1=O [Example 121, 7-(2-chlorophenyl)-3-(4-methylpyridin-3-yl)quinazoline-2,4(1H,3H)-dione]	1150 nM	708 nM	–	–	–
N#CCCn1c(=O)n(-c2cncc(C#N)c2)c(=O)c2sc(-c3ccccc3Cl)cc21 [Example 1061, 5-(6-(2-chlorophenyl)-1-(2-cyanoethyl)-2,4-dioxo-1,4-dihydrothieno[3,2-d]pyrimidin-3(2H)-yl)nicotinonitrile]	–	–	5.07 nM	–	14.6 nM
COc1cc(F)ccc1-c1cc2[nH]c(=O)n(-c3cncc4ccccc34)c(=O)c2s1 [Example 178]	196 nM	221 nM	–	–	–
COc1cc(-c2cc3c(s2)c(=O)n(-c2cncc4cnn(C)c24)c(=O)n3CCC#N)c(C)cc1F [Example 665]	10.5 nM	–	7.27 nM	–	–
COc1cc(F)cc(Cl)c1-c1ccc2c(=O)n(-c3cncc4ccccc34)c(=O)[nH]c2c1 [Example 651]	135 nM	–	336 nM	–	–
COc1cc(-c2cc3c(s2)c(=O)n(-c2cnc(F)c(C)c2)c(=O)n3CCC#N)c(Cl)cc1F [Example 891]	29.6 nM	–	9.38 nM	–	–
COc1cc(-c2cc3c(s2)c(=O)n(-c2cncc4nc(C)n(C)c24)c(=O)n3CCC#N)c(C#N)cc1F [Example 855]	498 nM	–	19 nM	–	–
COc1cc(-c2cc3[nH]c(=O)n(-c4cncc5cccc(Cl)c45)c(=O)c3s2)c(Cl)cc1F [Example 1075]	–	–	14.8 nM	11.7 nM	–
COc1ccc(Cl)c(-c2cc3[nH]c(=O)n(-c4cncc5ccc(N6CCN(S(C)(=O)=O)CC6)cc45)c(=O)c3s2)c1 [Example 425]	–	–	7.69 nM	–	30 nM
COc1ccc(Cl)c(-c2cc3[nH]c(=O)n(-c4cncc5ccn(C)c45)c(=O)c3s2)c1 [Example 455]	7.02 nM	–	7.26 nM	–	–

From patent US20240116946A1 (Gilead Sciences, Inc., priority 2022, published 2024)
